Assay results published in patent US20220313651A1, “INHIBITORS OF ZIKA VIRUS INFECTION” (priority 2019, published 2022).
“Also recorded” adds a separate entry of the source.

Assays:
[1] = target: T1, binding between ZIKV EDIII and EDIII-specific mAb SMZAb5 (Zika virus, UniProt Q32ZE1, D679E/I627V/V603I/V629A); details: ELISA; EDIII 1.5 μg/ml, mAb 0.5 μg/ml; read-out: IC50, blocking EDIII-mAb binding, SMZAb5
T1 construct: human Fc (C)
Method: (§1) Binding of compounds (NPs) to ZIKV full-length E (FIG. 3A), EDIII (FIG. 3B), and NS2B-NS3 (FIG. 3C) proteins, was detected by ELISA. The percent binding was reported in the presence or absence of serially diluted NPs using the formula (1-[E/EDIII-NP]/[E/EDIII])×100 (for E/EDIII binding) or (1-[NS2B-NS3-NP]/[NS2B-NS3])×100 (for NSEB-NS3 binding). […] The concentrations of ZIKV EDIII and mAbs were 1.5 and 0.5 μg/ml, respectively. […] The concentrations of substrate (Bz-Nle-Lys-Lys-Arg-AMC) and ZIKV NS2B-NS3 protein were 4 μM and 1 μg/ml, respectively. The percent inhibition of protease activity was calculated in the presence or absence of serially diluted compounds using the formula (1-[NS2B-NS3-substrate-NP]/[NS2B-NS3-substrate])×100. The IC50 values were calculated based on the percent inhibition. The data are expressed as mean±s.e.m. (n=4).
(§2) ELISA was also used to determine the ability of ST087010 in inhibition of the binding between ZIKV EDIII and EDIII-specific human mAbs (SMZAb5, ZKA64-LALA, ZV-67, or Z004) or EDI/II-specific human mAb (ZKA78) control.

[2] = target: T2, binding between ZIKV EDIII and EDIII-specific mAb Z004 (Zika virus, UniProt Q32ZE1, D679E/I627V/V603I/V629A); details: ELISA; EDIII 1.5 μg/ml, mAb 0.5 μg/ml; read-out: IC50, blocking EDIII-mAb binding, Z004
T2 construct: human Fc (C)
Method: as §1, §2

[3] = target: T3, binding between ZIKV EDIII and EDIII-specific mAb ZKA64-LALA (Zika virus, UniProt Q32ZE1, D679E/I627V/V603I/V629A); details: ELISA; EDIII 1.5 μg/ml, mAb 0.5 μg/ml; read-out: IC50, blocking EDIII-mAb binding, ZKA64-LALA
T3 construct: human Fc (C)
Method: as §1, §2

[4] = target: T4, binding between ZIKV EDIII and EDIII-specific mAb ZV-67 (Zika virus, UniProt Q32ZE1, D679E/I627V/V603I/V629A); details: ELISA; EDIII 1.5 μg/ml, mAb 0.5 μg/ml; read-out: IC50, blocking EDIII-mAb binding, ZV-67
T4 construct: human Fc (C)
Method: as §1, §2

[5] = Safety of ST087010 in pregnant Ifnar1-/- mice and their pups; assay type: in vivo
Method: FIG. 10A depicts weight changes of pregnant mothers at prenatal and postnatal time points and FIG. 10B depicts weight changes of pups at different postnatal time points. Alanine aminotransferase (ALT) (FIG. 10C) and creatinine (FIG. 10D) levels in sera of pregnant mice were measured by ALT assay and Creatinine assay, respectively, before and 4 h, 1, 3 and 5 days post-last injection of ST087010 or DMSO control. Haematoxylin and eosin (H&E) staining of tissues (FIG. 10E), including liver, spleen, kidney, and brain, from ST087010 or DMSO-treated mothers and their pups. Scale bar, 50 μm.
ST087010 was detected for its safety profiles in pregnant Ifnar1^−/− mice and their fetuses. Briefly, groups of 5 pregnant mice (8-12-week-old, E12-14) were i.p. injected with ST087010 (20 or 40 mg/kg of body weight), or DMSO (control), daily for 4 continual days. […] Sera collected before and 4 h, 1, 3 and 5 days after last injection were measured for ALT and creatinine levels using ALT and Creatinine Assay kits. Two mothers and their pups (at 3-week-old) were sacrificed, and their liver, spleen, kidney, and brain tissues were sectioned, and assessed for histopathological changes by H&E staining.

T1 sequence (Q32ZE1 584-695 V603I/I627V/V629A/D679E): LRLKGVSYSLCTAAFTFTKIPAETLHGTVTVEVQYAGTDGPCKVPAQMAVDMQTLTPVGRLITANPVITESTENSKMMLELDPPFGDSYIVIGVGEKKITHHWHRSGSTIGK
T3 sequence (Q32ZE1 584-695 V603I/I627V/V629A/D679E): as above
T4 sequence (Q32ZE1 584-695 V603I/I627V/V629A/D679E): as above
T2 sequence (Q32ZE1 584-695 V603I/I627V/V629A/D679E): as above

In the case of Cc1cc2c(C(C)C)c(O)c(O)c(/C=N/n3c(=O)[nH][nH]c3=O)c2c(O)c1-c1c(C)cc2c(C(C)C)c(O)c(O)c(/C=N/n3c(=O)[nH][nH]c3=O)c2c1O [ST087010], the IC50 [1] is reported as 5.72 µM, the IC50 [2] is reported as 44.5 µM and the IC50 [3] is reported as 4.17 µM. The IC50 [4] was 6.7 µM, the “Serum ALT and creatinine levels vs DMSO-treated mice, low dose” value ([5]; 20 mg/kg) was “no significant difference” and the “Serum ALT and creatinine levels vs DMSO-treated mice, high dose” value ([5]; 40 mg/kg, 1 day after injection, elevations transient) was “significantly different”. For the same molecule, the “Histopathology of liver, spleen, kidney and brain, mothers and pups” value ([5]; 20 or 40 mg/kg, vs DMSO) was “no abnormal pathological changes; also recorded: no inflammation or cell infiltration” and the “ALT and creatinine levels in sera, before vs after injection” value ([5]; 20 or 40 mg/kg, before injection and 4 h, 3 or 5 days after last injection) was “no significant differences”.
